Experimental data: patent US20150079105A1, “TREATMENT OF ACUTE INFLAMMATION IN THE RESPIRATORY TRACT” (UCL Business PLC, priority 2012, published 2015)
Entries after “also recorded” stand apart in the source; their conditions may differ.

Assays:
S. pneumoniae = S. pneumoniae challenge of mice (bacteria-induced ALI and host defense); type: in vivo; settings: 5 mg/kg i.p. after 30 min
Description: FIG. 4. Mice were killed three hours after inoculation with S. pneumoniae (serotype 19, 50 μl/mouse, 5×10^6 CFU/mouse i.n.) with and without the PAR1 antagonist RWJ-58259 (5 mg/kg) dosed therapeutically i.p. after 30 min. Lungs were lavaged (1.5 ml PBS total) and total BAL fluid leukocytes (a) and neutrophils (b) were quantified. S. pneumoniae was recovered from lung homogenates and individual colonies counted (c). Panels show mean values for n=5/group from two separate experiments. Data were analysed by one way ANOVA with Neuman-Keuls Post Hoc test: ***p<0.0001, *p<0.05.
FIG. 5. Mice were killed three hours after inoculation with S. pneumoniae (serotype 2, clinical isolate D39, 50 μl/mouse, 5×10^6 CFU/mouse i.n.) with and without the PAR1 antagonist RWJ-58259 (5 mg/kg) dosed therapeutically i.p. after 30 min. Lungs were lavaged (1.5 ml PBS total) and total BAL fluid leukocytes (A), macrophages (B) and neutrophils (C) were quantified. Bronchoalveolar lavage fluid was collected and levels of thrombin-anti-thrombin (TAT) and serum albumin were quantified by ELISA (D and E). Panels show mean values for n=5/group from two separate experiments. Data were analysed by one way ANOVA with Neuman-Keuls Post Hoc test: ***p<0.0001, *p<0.05.
FIG. 6. Mice were killed three hours after inoculation with S. pneumoniae (serotype 2, clinical isolate D39, 50 μl/mouse, 5×10^6 CFU/mouse i.n.) with and without the PAR1 antagonist RWJ-58259 (5 mg/kg) dosed therapeutically i.p. after 30 min. Lungs were lavaged (1.5 ml PBS total) and bacterial colony forming units (cfu) counted after 3 h (A) and 24 h (B). Bacterial invasive disease was measured by cfu in the lung (C) and spleen (D) after 24 h. Data were analysed by one way ANOVA with Neuman-Keuls Post Hoc test: n.s. not significant. […]
In order to examine the influence of PAR1 during host defense and in a model of bacteria-induced ALI, mice were challenged with S. pneumoniae (5×10^6 CFU/mouse, i.n.), which is the most common infectious agent responsible for ALI. Mice were inoculated with 50 μl S. pneumoniae (serotype 19, 5×10^6 CFU/mouse i.n.). 3 hours later, animals were sacrificed (urethane i.p. […]), endotracheally cannulated and bronchoalveolar lavage performed (1.5 ml, PBS). Total and differential counts were quantified following cytospin and albumin levels measured by ELISA (Bethyl Laboratories Inc, USA).
PAR1 antagonism was also found to decrease the number of BAL macrophages (FIG. 5b). Bronchoalveolar lavage fluid was collected and levels of thrombin-anti-thrombin (TAT) and serum albumin were quantified by ELISA (FIG. 4d, e). […] Panels show mean values for n=5/group from two separate experiments. Data were analysed by one way ANOVA with Neuman-Keuls Post Hoc test: ***p<0.0001, *p<0.05. […]

LPS challenged mice = assay: LPS-induced acute lung inflammation in mice: BAL fluid cell counts, MPO, serum albumin; type: in vivo
[1] = serotype 2, D39, after 24 hours
[2] = serotype 19, 5×10^6 CFU/mouse i.n., 3 h
[3] = 5 mg/kg i.p. 30 min after LPS 125 μg/kg i.n., 3 h after LPS, vs LPS alone
[4] = 5 mg/kg i.p. 30 min after LPS, 3 h

NCC[C@H](NC(=O)[C@H](Cc1ccc(F)c(F)c1)NC(=O)Nc1ccc2c(CN3CCCC3)nn(Cc3c(Cl)cccc3Cl)c2c1)C(=O)NCc1ccccc1 [RWJ-58259]
PAR1 mediated disruption of the alveolar-capillary barrier (TAT and serum albumin in BAL fluid by ELISA) (S. pneumoniae; serotype 2, D39, 3 h): reduce
number of BAL macrophages (S. pneumoniae; serotype 2, D39, 3 h): decrease
S. pneumoniae colony counts recovered from BALF (S. pneumoniae; serotype 2, D39, 24 hours): unaffected
bacterial invasive disease, cfu in the lung (S. pneumoniae; [1]): unaffected
bacterial invasive disease, cfu in the spleen (S. pneumoniae; [1]): unaffected
S. pneumoniae colony counts recovered from BALF (S. pneumoniae; serotype 2, D39, after three hours): unaffected
neutrophil accumulation (BAL fluid) (S. pneumoniae; [2]): reduced
total cellular infiltration (BAL fluid leukocytes) (S. pneumoniae; [2]): reduced
S. pneumoniae colony counts recovered from whole lung (host defense) (S. pneumoniae; serotype 19, 3 h): unaffected
BAL fluid serum albumin following S. pneumoniae challenge (S. pneumoniae; serotype not stated, 3 h): decreased
neutrophil numbers in the airspaces (BAL fluid) (LPS challenged mice; [3]): significantly decreased
total cell numbers in the airspaces (BAL fluid) (LPS challenged mice; [3]): significantly decreased
Gr-1+(F4/80−) neutrophils recovered from BAL fluid and whole lung preparations, flow cytometry (LPS challenged mice; [4]): a decrease
LPS-induced neutrophil myeloperoxidase activity in lung homogenates (LPS challenged mice; [4]): reduced
macrophage numbers in BAL fluid (LPS challenged mice; [4]): remained unchanged
serum albumin levels in BAL fluid (alveolar-capillary barrier disruption) (LPS challenged mice; 5 mg/kg i.p. 30 min after LPS, 3 h, vs LPS alone, listed as PAR1 antagonist): significantly decreased; also recorded: significantly reduced
neutrophil recruitment (LPS challenged mice; 5 mg/kg i.p. 30 min after LPS, 6 h following LPS challenge): reduced
neutrophil recruitment (LPS challenged mice; 5 mg/kg i.p. 30 min after LPS, 24 h following LPS challenge): reduced
